Data reported in patent US6528494B2 (priority 1996, dated 2003).
Structures can show the parent of a compound that is named as a salt.

How the values were obtained:
Type in all cases: cell-based
adenosine 1 receptor = molecular target: T1, adenosine 1 receptor (Homo sapiens, UniProt P30542); test: Agonist activity against adenosine 1 receptor (CHO cells, forskolin-enhanced cAMP/SPAP reporter); settings: CHO cells transfected with human receptor; forskolin-enhanced cAMP via SPAP; mean of all the versions tested
T1 sequence (P30542 1-326): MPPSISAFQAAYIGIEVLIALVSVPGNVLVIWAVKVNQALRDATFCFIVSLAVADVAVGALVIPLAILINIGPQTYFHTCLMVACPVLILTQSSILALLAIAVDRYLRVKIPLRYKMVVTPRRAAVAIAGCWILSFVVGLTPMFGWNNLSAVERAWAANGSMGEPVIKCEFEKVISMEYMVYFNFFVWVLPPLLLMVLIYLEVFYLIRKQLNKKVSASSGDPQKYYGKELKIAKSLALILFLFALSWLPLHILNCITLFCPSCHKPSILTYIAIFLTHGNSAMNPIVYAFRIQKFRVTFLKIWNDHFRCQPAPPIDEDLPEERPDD
Protocol: (§1) (1) Agonist activity against adenosine 2a, adenosine 1 and adenosine 3 receptor subtypes.
(§2) The effect of test compounds was determined by their effects on basal levels of cAMP (A2a) or on forskolin-enhanced cAMP (A1 and A3) as reflected by changes in levels of SPAP.

adenosine 2a receptor = adenosine 2a receptor (Homo sapiens, UniProt P29274); test: Agonist activity against adenosine 2a receptor (CHO cells, cAMP/SPAP reporter); settings: CHO cells transfected with human receptor; basal cAMP via SPAP; mean of all the versions tested
adenosine 2a receptor, sequence (P29274 whole entry): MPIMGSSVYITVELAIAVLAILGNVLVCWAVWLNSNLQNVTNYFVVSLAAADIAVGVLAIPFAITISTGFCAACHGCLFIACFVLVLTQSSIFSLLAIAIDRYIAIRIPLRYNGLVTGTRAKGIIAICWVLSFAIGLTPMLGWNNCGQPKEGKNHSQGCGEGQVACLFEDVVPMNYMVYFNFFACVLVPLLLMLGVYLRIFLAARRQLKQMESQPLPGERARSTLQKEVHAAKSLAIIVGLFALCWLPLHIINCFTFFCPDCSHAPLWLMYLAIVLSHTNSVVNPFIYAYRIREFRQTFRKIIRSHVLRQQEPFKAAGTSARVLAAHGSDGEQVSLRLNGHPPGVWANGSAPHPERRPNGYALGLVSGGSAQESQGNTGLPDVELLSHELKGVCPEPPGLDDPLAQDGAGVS
Protocol: as §1, §2

adenosine 3 receptor = molecular target: T2, adenosine 3 receptor (Homo sapiens, UniProt P0DMS8); test: Agonist activity against adenosine 3 receptor (CHO cells, forskolin-enhanced cAMP/SPAP reporter); settings: CHO cells transfected with human receptor; forskolin-enhanced cAMP via SPAP; mean of all the versions tested
T2 sequence (P0DMS8 1-318): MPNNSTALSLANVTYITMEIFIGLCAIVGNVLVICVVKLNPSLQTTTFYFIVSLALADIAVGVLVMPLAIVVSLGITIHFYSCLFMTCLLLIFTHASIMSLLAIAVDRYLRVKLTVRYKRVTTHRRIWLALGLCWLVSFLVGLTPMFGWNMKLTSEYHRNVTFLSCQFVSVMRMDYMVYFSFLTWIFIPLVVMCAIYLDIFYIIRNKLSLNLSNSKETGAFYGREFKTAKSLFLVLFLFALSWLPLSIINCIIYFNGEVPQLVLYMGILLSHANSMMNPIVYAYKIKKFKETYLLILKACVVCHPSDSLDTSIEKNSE
Protocol: as §1, §2

| A1 EC50 as a ratio of that of NECA (adenosine 1 receptor) | A2a EC50 as a ratio of that of NECA (adenosine 2a receptor) | A3 EC50 as a ratio of that of NECA (adenosine 3 receptor) | Compound |
| --- | --- | --- | --- |
| 321.00 | 6.36 | >195 | CCn1nnc(C2OC(n3cnc4c(NCCc5ccccc5)nc(NCCN5CCCCC5)nc43)C(O)C2O)n1.O=CO.O=CO [Example 102, (2R,3S,4R,5R)-2-(2-Ethyl-2H-tetrazol-5-yl)-5-[6-phenethylamino-2-(2-piperidin-1-yl-ethylamino)-purin-9-yl]-tetrahydro-furan-3,4-diol Diformate] |
| 48.50 | 3.91 | >184 | CCn1nnc(C2OC(n3cnc4c(NC(CO)Cc5ccccc5)nc(NCCN5CCCCC5)nc43)C(O)C2O)n1 (stereo not drawn) [Example 103] |
| 113.40 | 4.04 | >235 | CCn1nnc(C2OC(n3cnc4c(NC5CCCC5)nc(NCCN5CCCCC5)nc43)C(O)C2O)n1.O=CO.O=CO [Example 104, (2R,3R,4S,5R)-2-[6-Cyclopentylamino-2-(2-piperidin-1-yl-ethylamino)-purin-9-yl]-5-(2-ethyl-2H-tetrazol-5-yl)-tetrahydro-furan-3,4-diol bis(Formate)] |
| >2999.00 | 1.07 | >233 | Cn1nnc(C2OC(n3cnc4c(NCc5cccc(I)c5)nc(NC5CCC(N)CC5)nc43)C(O)C2O)n1.O=CO.O=CO [Example 105, (2R,3R,4S,5R)-2-[2-(trans-4-Amino-cyclohexylamino)-6-(3-iodo-benzylamino)-purin-9-yl]-5-(2-methyl-2H-tetrazol-5-yl)-tetrahydro-furan-3,4-diol bis(Formate)] |
| 100.30 | 1.12 | >201 | Cn1nnc(C2OC(n3cnc4c(NCc5cccc(I)c5)nc(NCCN5CCCCC5)nc43)C(O)C2O)n1 [Example 106, (2R,3R,4S,5R)-2-[6-(3-lodo-benzylamino)-2-(2-piperidin-1-yl-ethylamino)-purin-9-yl]-5-(2-methyl-2H-tetrazol-5-yl)-tetrahydro-furan-3,4-diol bis(Formate)] |
| 89.10 | 1.27 | >233 | Cn1nnc(C2OC(n3cnc4c(NC(CO)Cc5ccccc5)nc(NCCN5CCCCC5)nc43)C(O)C2O)n1 [Example 107, (2R,3R,4S,5R)-2-[6-(1S-Hydroxymethyl-2-phenyl-ethylamino)-2-(2-piperidin-1-yl-ethylamino)-purin-9-yl]-5-(2-methyl-2H-tetrazol-5-yl)-tetrahydro-furan-3,4-diol bis(Formate)] |
| 111.30 | 2.25 | >201 | Cn1nnc(C2OC(n3cnc4c(NCc5cccc(I)c5)nc(NCCN5CCCC5)nc43)C(O)C2O)n1.O=CO.O=CO [Example 108, (2R,3R,4S,5R)-2-[6-(3-Iodo-benzylamino)-2-(2-pyrrolidin-1-yl-ethylamino)-purin-9-yl]-5-(2-methyl-2H-tetrazol-5-yl)-tetrahydro-furan-3,4-diol bis(Formate)] |
| 17.70 | 8.54 | >446 | Cn1nnc(C2OC(n3cnc4c(NCc5cccc(I)c5)nc(NC(CO)Cc5ccccc5)nc43)C(O)C2O)n1 [Example 109, (2R,3R,4S,5R)-2-[2-(1S-Hydroxymethyl-2-phenyl-ethylamino)-6-(3-iodo-benzylamino)-purin-9-yl]-5-(2-methyl-2H-tetrazol-5-yl)-tetrahydro-furan-3,4-diol Formate] |
